Measured values as given in patent EP2140864A2 (H. Lundbeck A/S, priority 2001, dated 2002).
Read-outs that look alike come from different tables or passages of the source. Marks after values point to notes of the source that are not given here.

Experiments:
NE transporter [1] = test: Binding at native NE transporter; conditions: Table 8; Ki rNE Uptk divided by Ki hGAL3
Method: (§1) The binding properties of the compounds of the present invention were evaluated at one or more cloned receptors or native, tissue-derived transporters, using protocols described below.
(§2) The methods to determine binding affinity at native transporters are described in the following publications: 5HT transporter and NE transporter (Owens et al., 1997), and DA transporter (Javitch et al, 1984).
(§3) Binding data were analyzed using nonlinear regression and statistical techniques available in the GraphPAD Prism package (San Diego, CA). Enzymatic assay data were derived from a standard curve of reference compound data.

human GAL1 receptor = target: T1, human GAL1 receptor (Homo sapiens, UniProt P47211); test: Radioligand binding at cloned human GAL1 receptor
T1 construct: expressed in transfected cells
T1 sequence (P47211 1-349): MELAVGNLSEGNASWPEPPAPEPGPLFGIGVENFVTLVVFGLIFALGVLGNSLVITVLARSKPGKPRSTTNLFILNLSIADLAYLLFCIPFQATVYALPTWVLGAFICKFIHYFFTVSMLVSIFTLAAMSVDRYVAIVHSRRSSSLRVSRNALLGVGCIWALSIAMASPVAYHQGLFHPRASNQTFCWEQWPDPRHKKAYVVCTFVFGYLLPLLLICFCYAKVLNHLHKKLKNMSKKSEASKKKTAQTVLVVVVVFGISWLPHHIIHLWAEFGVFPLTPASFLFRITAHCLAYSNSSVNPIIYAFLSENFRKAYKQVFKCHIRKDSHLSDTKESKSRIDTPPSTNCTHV
Method: The binding properties of the pyrimidines of the present invention were evaluated at the cloned human galanin receptors, GAL1, GAL2, and GAL3, using protocols described herein. […]
LM(tk-) cells were stably transfected with the human GAL1 or GAL3 receptor. CHO cells were stably transfected with the human GAL2 receptor.
cDNAs for the human and rat GAL1, and human and rat GAL3 receptors were transfected with a G-418 resistant gene into the mouse fibroblast LM(tk-) cell line by a calcium phosphate transfection method (Cullen, 1987). Stably transfected cells were selected with G-418. Human and rat GAL2 receptors were similarly transfected into CHO cells.
Membranes were harvested from stably transfected LM(tk-) cells. Adherent cells were washed twice in ice-cold phosphate buffered saline (138 mM NaCl, 8.1 mM Na2HPO4, 2.5 mM KCl, 1.2 mM KH2PO4, 0.9 mM CaCl2, 0.5 mM MgCl2, pH 7.4) and lysed by sonication in ice-cold sonication buffer (20 mM Tris-HCl, 5 mM EDTA, pH 7.7). Large particles and debris were cleared by low speed centrifugation (200 x g, 5 min, 4°C). Membranes were collected from the supernatant fraction by centrifugation (32,000 x g, 18 min, 4°C), washed with ice-cold hypotonic buffer, and collected again by centrifugation (32,000 x g, 18 min, 4°C). The final membrane pellet was resuspended by sonication into a small volume of ice-cold binding buffer (-1 ml for every 5 plates: 10 mM NaCl, 20 mM HEPES, 0.22 mM KH2PO4, 1.26 mM CaCl2, 0.81 mM MgSO4, pH 7.4). Protein concentration was measured by the Bradford method (Bradford, 1976) using Bio-Rad Reagent, with bovine serum albumin as a standard. Membranes were held on ice for up to one hour and used fresh, or flash frozen and stored in liquid nitrogen. Membranes were prepared similarly from CHO cells.
Galanin Recentors: Binding assays were performed according to the following published methods: human GAL3 (PCT International Publication No. WO 98/15570), human GAL1 (PCT International Publication No. WO 95/2260), human GAL2 (PCT International Publication No. WO 97/26853).
as §3

NE transporter [2] = target: NE transporter (Rattus norvegicus, UniProt Q63380); test: Binding at native NE transporter; conditions: Table 7; native transporter, head prints r (rat); read-out: rNE Uptk Ki
NE transporter (Rattus norvegicus, UniProt Q63380), sequence (Q63380 1-617): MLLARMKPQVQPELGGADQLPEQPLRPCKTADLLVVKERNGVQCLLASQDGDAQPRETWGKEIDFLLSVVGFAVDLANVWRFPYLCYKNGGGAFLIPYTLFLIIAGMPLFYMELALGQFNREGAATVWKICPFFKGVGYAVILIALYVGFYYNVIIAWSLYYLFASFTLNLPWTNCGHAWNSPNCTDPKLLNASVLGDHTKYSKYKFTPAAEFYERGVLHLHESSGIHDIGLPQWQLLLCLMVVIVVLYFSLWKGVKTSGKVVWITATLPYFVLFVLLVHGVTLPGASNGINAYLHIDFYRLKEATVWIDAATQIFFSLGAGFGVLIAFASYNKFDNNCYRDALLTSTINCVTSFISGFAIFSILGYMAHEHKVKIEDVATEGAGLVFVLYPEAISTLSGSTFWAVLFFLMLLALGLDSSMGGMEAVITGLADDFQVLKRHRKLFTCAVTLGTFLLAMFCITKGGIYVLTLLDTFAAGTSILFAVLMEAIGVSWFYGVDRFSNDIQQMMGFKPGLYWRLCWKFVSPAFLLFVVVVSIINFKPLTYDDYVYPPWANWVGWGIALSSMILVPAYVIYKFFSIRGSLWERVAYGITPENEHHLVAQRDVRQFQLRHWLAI
Method: as §1, §2, §3

Male Sprague-Dawley rats = test: Rat Forced Swim Test (FST); type: in vivo; conditions: for antidepressant profile in the FST (conclusion): overall conclusion of the study
Method: The procedure used in this study was similar to that previously described (Porsolt, et al., 1978), except the water depth (30 cm in this procedure). The greater depth in this test prevented the rats from supporting themselves by touching the bottom of the cylinder with their feet. Swim sessions were conducted by placing rats in individual plexiglass cylinders (46 cm tall x 20 cm in diameter) containing 23-25°C water 30 cm deep (Porsolt, et al. used a depth of only 15 cm; also, see Detke, et al., 1995). Two swim tests were conducted always between 1200 and 1800 hours: an initial 15-min pretest followed 24 h later by a 5-minute test. […] All other test sessions were conducted between 1300 to 1700 hours. Following all swim sessions, rats were removed from the cylinders, dried with paper towels and placed in a heated cage for 15 minutes and returned to their home cages. All test sessions were videotaped using a Panasonic color video camera and recorder for scoring later.
Male Sprague-Dawley rats (Taconic Farms, NY) were used in all experiments. Rats were housed in pairs and maintained on a 12:12-h light-dark cycle. Rats were handled for 5 minutes each day for 5 days prior to behavioral testing.
The rat's behavior was rated at 5 second intervals during the 5 minute test as one of the following: • 1. Immobility- rat remained floating in the water without struggling and was only making those movements necessary to keep its head above water; • 2. Climbing - rat was making active movements with its forepaws in and out of the water, usually directed against the walls; • 3. Swimming - rat was making active swimming motions, more than necessary to merely maintain its head above water, e.g. moving around in the cylinder; and • 4. Diving - entire body of the rat was submerged.
All of the behavior scoring was done by a single rater, who was blind to the treatment condition. The rater was also present in the room throughout the entire test period.
All injections were given using 1 cc tuberculin syringe with 26 3/8 gauge needles (Becton-Dickinson, VWR Scientific, Bridgeport, NJ). The volume of injection was 1 ml/kg.
The drugs were dissolved in 100% N,N-dimethylacetamide. All administrations were given using 1 cc tuberculin syringes, to which a 3 inch, curved, stainless steel gavage needle was attached. The volume of administration was 1 ml/kg.
The compounds were dissolved in 100% N,N-dimethylacetamide. All administrations were given using 1 cc tuberculin syringes, to which a 3 inch, curved, stainless steel gavage needle was attached. The volume of administration was 1 ml/kg.
The forced swim test data (immobility, swimming, climbing, diving) were subjected to a randomized, one-way ANOVA and post hoc tests conducted using the Student-Newman-heuls test. The data were analyzed using the GBSTAT program, version 6.5 (Dynamics Microsystems, Inc., Silver Spring, MD, 1997). All data are presented as means ± S.E.M.

[3] = pyrimidines, read-out: Ki GalR1
[4] = 3 mg/kg p.o., single administration, 1 hr. before test
[5] = 10 mg/kg p.o., single administration, 1 hr. before test
[6] = 30 mg/kg p.o., single administration, 1 hr. before test
[7] = 0.3 mg/kg p.o., single administration, 1 hr. before test
[8] = 1 mg/kg p.o., single administration, 1 hr. before test
[9] = 30 mg/kg i.p., single injection, 5 minute test

SMILES | selectivity ratio rNE Uptk (NE transporter [1]) | Ki (human GAL1 receptor; [3]) | Ki (NE transporter [2]) | Climbing (Male Sprague-Dawley rats; [4]) | Diving (Male Sprague-Dawley rats; [4]) | Immobility (Male Sprague-Dawley rats; [4]) | Climbing (Male Sprague-Dawley rats; [5]) | Diving (Male Sprague-Dawley rats; [5]) | Immobility (Male Sprague-Dawley rats; [5]) | Swimming (Male Sprague-Dawley rats; [5]) | other results
Cc1ccc(Nc2cc(N3CCCCC3)nc(N(C)CCc3c[nH]c4ccccc34)n2)cc1 [Example 11] | >100 |  |  |  |  |  |  |  |  |  | 
CN(CCc1c[nH]c2ccccc12)c1nc(Nc2ccc(F)c(F)c2)cc(N2CCCCC2)n1 [Example 15] | >100 | 2.43 µM |  |  |  |  |  |  |  |  | 
COc1cccc(Nc2cc(N3CCCCC3)nc(N(C)CCc3c[nH]c4ccccc34)n2)c1 [Example 17] | >100 |  | 18.3 µM |  |  |  |  |  |  |  | 
Cc1ccc(Nc2cc(N3CCCCC3)nc(N(C)CCc3ccccc3)n2)cc1 [Example 22] | >100 | 0.442 µM | 13.1 µM | 2.0 ± 0.6 | 0.4 ± 0.4 | 50 ± 0.9 | 2.9 ± 0.5 | 0.4 ± 0.3 | 41 ± 1.3^c | 15.3 ± 0.8^g | Swimming (Male Sprague-Dawley rats; [4]): 7.6 ± 0.5; Climbing (Male Sprague-Dawley rats; [6]): 5.2 ± 1.0^a; Diving (Male Sprague-Dawley rats; [6]): 0.0 ± 0.0; Immobility (Male Sprague-Dawley rats; [6]): 31 ± 2.8^b; Swimming (Male Sprague-Dawley rats; [6]): 23.2 ± 2.0^f; antidepressant profile in the FST (conclusion) (Male Sprague-Dawley rats): has antidepressant properties
Cc1ccc(Nc2cc(N3CCCCC3)nc(N3CCN(c4ncccc4C(F)(F)F)CC3)n2)cc1 [Example 34] | >100 | 0.912 µM |  | 4.3 ± 0.8 | 0.3 ± 0.3 | 35 ± 2.0^b | 2.0 ± 0.4 | 0.4 ± 0.3 | 49 ± 1.4 | 8.2 ± 1.2 | Climbing (Male Sprague-Dawley rats; [7]): 3.3 ± 0.7; Diving (Male Sprague-Dawley rats; [7]): 0.2 ± 0.1; Immobility (Male Sprague-Dawley rats; [7]): 45 ± 1.5^a; Swimming (Male Sprague-Dawley rats; [7]): 11.6 ± 0.9^d; Climbing (Male Sprague-Dawley rats; [8]): 5.0 ± 0.8^c; Diving (Male Sprague-Dawley rats; [8]): 0.3 ± 0.2; Immobility (Male Sprague-Dawley rats; [8]): 35 ± 1.9^b; Swimming (Male Sprague-Dawley rats; [8]): 19.6 ± 1.3^d,e; Swimming (Male Sprague-Dawley rats; [4]): 20.8 ± 1.3^d,e; antidepressant profile in the FST (conclusion) (Male Sprague-Dawley rats): resembles that of antidepressants
COC[C@@H]1[C@@H](c2ccccc2)OCCN1c1nc(Nc2ccc(C)cc2)cc(N2CCCCC2)n1 [Example 49] |  |  |  | 3.0 ± 0.7 | 1.0 ± 0.7 | 43 ± 1.9 | 2.4 ± 0.7 | 0.0 ± 0.0 | 48 ± 1.7 | 10.0 ± 1.0 | Swimming (Male Sprague-Dawley rats; [4]): 13.1 ± 1.4; Climbing (Male Sprague-Dawley rats; [6]): 2.3 ± 0.4; Diving (Male Sprague-Dawley rats; [6]): 0.4 ± 0.4; Immobility (Male Sprague-Dawley rats; [6]): 41 ± 2.0^a; Swimming (Male Sprague-Dawley rats; [6]): 16.7 ± 1.3^d; Ki (human GAL1 receptor; read-out: Ki GalR1, pyrimidines): > 5 µM
CN(C)c1cc(Nc2ccc(Cl)c(Cl)c2)nc(Nc2ccccc2)n1 [Example 60] | >100 | > 5 µM | 46.1 µM |  |  |  |  |  |  |  | 
Cc1ccc(Nc2cc(N(C)C)nc(N(C)CCc3c[nH]c4ccccc34)n2)cc1 [Example 77] | >100 | 3.8 µM | 28.1 µM |  |  |  |  |  |  |  | 
O=C1C(=Nc2cccc(C(F)(F)F)c2)c2ccccc2N1c1ccccc1 [Example 92, 1-PHENYL-3- [[3-(TRIFLUOROMETHYL)PHENYL]IMINO]-1,3-DIHYDRO-2H-INDOL-2-ONE] |  |  |  |  |  |  |  |  |  |  | Climbing (Male Sprague-Dawley rats; 1 mg/kg i.p., single injection, 5 minute test): 11.7 ± 1.1 counts; Climbing (Male Sprague-Dawley rats; 3 mg/kg i.p., single injection, 5 minute test): 14.6 ± 1.5 counts; Climbing (Male Sprague-Dawley rats; [9]): 8.6 ± 1.7 counts; Immobility (Male Sprague-Dawley rats; [9]): 25 ± 3.5 counts
O=C1C(=Nc2cccc(Cl)c2)c2ccccc2N1c1ccccc1 [Example 94, 3-[(3-CHLOROPHENYL)IMINO]-1-PHENYL-1,3-DIHYDRO-2H-INDOL-2-ONE] | >30 |  | 4.88 µM |  |  |  |  |  |  |  | Ki (human GAL1 receptor; indolones, read-out: Ki GalR1): > 10 µM
O=C1C(=Nc2ccc(Cl)cc2)c2ccccc2N1c1ccccc1 [Example 97, 3-[(4-CHLOROPHENYL)IMINO]-1-PHENYL-1,3-DIHYDRO-2H-INDOL-2-ONE] | >30 |  | 4.41 µM |  |  |  |  |  |  |  | Ki (human GAL1 receptor; indolones, read-out: Ki GalR1): > 10 µM
O=C1C(=Nc2cc(Cl)cc(Cl)c2)c2ccccc2N1c1ccccc1 [Example 103, 3-[(3,5-DICHLOROPHENYL)IMINO]-1-PHENYL-1,3-DIHYDRO-2H-INDOL-2-ONE] |  |  |  | 2.8 ± 0.6 | 0.5 ± 0.4 | 44 ± 2.7 | 3.5 ± 0.6 | 0.4 ± 0.2 | 42 ± 2.2 | 14.3 ± 1.6 | Climbing (Male Sprague-Dawley rats; [6]): 4.8 ± 0.7; Diving (Male Sprague-Dawley rats; [6]): 1.1 ± 0.5; Immobility (Male Sprague-Dawley rats; [6]): 32 ± 1.8^a; Swimming (Male Sprague-Dawley rats; [6]): 22.7 ± 1.1^c; antidepressant profile in the FST (conclusion) (Male Sprague-Dawley rats): has antidepressant properties; Ki (human GAL1 receptor; indolones, read-out: Ki GalR1): > 10 µM
